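Growth conditions: 96-well plates. Treatment: test compound, 48 hours, 5 concentrations. Analysis: linear interpolation between bracketing concentrations; unreached endpoints set to highest concentration. At the GI50, growth is halved.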 The source made the active and inactive calls. Rule as the data show it: active = GI50 up to about 1.1 µM and inactive = higher.
What was measured:
Assay in all cases: NCI anticancer screen, dose series, 48 h
786-0 = tested on: 786-0
A498 = tested on: A498
A549 = tested on: A549
ACHN = tested on: ACHN
CAKI-1 = tested on: CAKI-1
CCRF-CEM = tested on: CCRF-CEM
COLO 205 = tested on: COLO 205
DLD-1 = tested on: DLD-1
DMS-114 = tested on: DMS-114
DMS-273 = tested on: DMS-273
EKVX = tested on: EKVX
HCC 2998 = tested on: HCC 2998
HCT-116 = tested on: HCT-116
HCT-15 = tested on: HCT-15
HL-60 = tested on: HL-60
HOP-18 = tested on: HOP-18
HOP-62 = tested on: HOP-62
HOP-92 = tested on: HOP-92
HT-29 = tested on: HT-29
IGROV-1 = tested on: IGROV-1
K562 = tested on: K562
KM-20L2 = tested on: KM-20L2
KM12 = tested on: KM12
LOX IMVI = tested on: LOX IMVI
LXFL 529 = tested on: LXFL 529
M14 = tested on: M14
M19-MEL = tested on: M19-MEL
MOLT-4 = tested on: MOLT-4
Malme-3M = tested on: Malme-3M
NCI-H226 = tested on: NCI-H226
NCI-H23 = tested on: NCI-H23
NCI-H460 = tested on: NCI-H460
NCI-H522 = tested on: NCI-H522
OVCAR-3 = tested on: OVCAR-3
OVCAR-4 = tested on: OVCAR-4
OVCAR-5 = tested on: OVCAR-5
OVCAR-8 = tested on: OVCAR-8
RPMI-8226 = tested on: RPMI-8226
RXF 631 = tested on: RXF 631
SF-268 = tested on: SF-268
SF-295 = tested on: SF-295
SF-539 = tested on: SF-539
SK-MEL-28 = tested on: SK-MEL-28
SK-MEL-2 = tested on: SK-MEL-2
SK-MEL-5 = tested on: SK-MEL-5
SN12C = tested on: SN12C
SNB-19 = tested on: SNB-19
SNB-75 = tested on: SNB-75
SNB-78 = tested on: SNB-78
SR = tested on: SR
SW-620 = tested on: SW-620
TK-10 = tested on: TK-10
U-251 = tested on: U-251
UACC-257 = tested on: UACC-257
UACC-62 = tested on: UACC-62
UO-31 = tested on: UO-31
XF498 = tested on: XF498
SK-OV-3 = tested on: SK-OV-3
RXF 393 = tested on: RXF 393

Structure (SMILES): C=CCc1cc2cccc(OC)c2oc1=O
- GI50 (786-0): > 100 µM (inactive)
- GI50 (A498): > 100 µM (inactive)
- GI50 (A549): > 100 µM (inactive)
- GI50 (ACHN): > 100 µM (inactive)
- GI50 (CAKI-1): > 100 µM (inactive)
- GI50 (CCRF-CEM): 45.2 µM (inactive)
- GI50 (COLO 205): > 100 µM (inactive)
- GI50 (DLD-1): > 100 µM (inactive)
- GI50 (DMS-114): 80.5 µM (inactive)
- GI50 (DMS-273): > 100 µM (inactive)
- GI50 (EKVX): 44.3 µM (inactive)
- GI50 (HCC 2998): > 100 µM (inactive)
- GI50 (HCT-116): > 100 µM (inactive)
- GI50 (HCT-15): > 100 µM
- GI50 (HL-60): 34.8 µM (inactive)
- GI50 (HOP-18): 73.6 µM (inactive)
- GI50 (HOP-62): > 100 µM (inactive)
- GI50 (HOP-92): 92.3 µM (inactive)
- GI50 (HT-29): > 100 µM (inactive)
- GI50 (IGROV-1): > 100 µM (inactive)
- GI50 (K562): 75.5 µM (inactive)
- GI50 (KM-20L2): > 100 µM (inactive)
- GI50 (KM12): > 100 µM (inactive)
- GI50 (LOX IMVI): 93.3 µM (inactive)
- GI50 (LXFL 529): 57 µM (inactive)
- GI50 (M14): > 100 µM (inactive)
- GI50 (M19-MEL): > 100 µM (inactive)
- GI50 (MOLT-4): 63.4 µM (inactive)
- GI50 (Malme-3M): > 100 µM (inactive)
- GI50 (NCI-H226): > 100 µM (inactive)
- GI50 (NCI-H23): > 100 µM (inactive)
- GI50 (NCI-H460): > 100 µM (inactive)
- GI50 (NCI-H522): 6.9 µM (inactive)
- GI50 (OVCAR-3): > 100 µM (inactive)
- GI50 (OVCAR-4): > 100 µM (inactive)
- GI50 (OVCAR-5): 66.1 µM (inactive)
- GI50 (OVCAR-8): > 100 µM (inactive)
- GI50 (RPMI-8226): > 100 µM (inactive)
- GI50 (RXF 631): > 100 µM (inactive)
- GI50 (SF-268): > 100 µM (inactive)
- GI50 (SF-295): > 100 µM (inactive)
- GI50 (SF-539): > 100 µM (inactive)
- GI50 (SK-MEL-28): > 100 µM (inactive)
- GI50 (SK-MEL-2): > 100 µM (inactive)
- GI50 (SK-MEL-5): 87.3 µM (inactive)
- GI50 (SN12C): > 100 µM (inactive)
- GI50 (SNB-19): > 100 µM (inactive)
- GI50 (SNB-75): 87.5 µM (inactive)
- GI50 (SNB-78): > 100 µM (inactive)
- GI50 (SR): 44.3 µM (inactive)
- GI50 (SW-620): > 100 µM (inactive)
- GI50 (TK-10): > 100 µM (inactive)
- GI50 (U-251): > 100 µM (inactive)
- GI50 (UACC-257): > 100 µM (inactive)
- GI50 (UACC-62): > 100 µM (inactive)
- GI50 (UO-31): 1.19 µM (inactive)
- GI50 (XF498): 7.24 µM (inactive)

Structure (SMILES): CC(C)C(/N=C1\CC2CCC1(C(=O)Nc1ccccc1O)C2(C)C)c1ccccc1 (stereo not drawn)
- GI50 (786-0): > 10 µM (inactive)
- GI50 (A498): > 10 µM (inactive)
- GI50 (A549): > 10 µM (inactive)
- GI50 (ACHN): > 10 µM (inactive)
- GI50 (CAKI-1): > 10 µM (inactive)
- GI50 (CCRF-CEM): > 10 µM (inactive)
- GI50 (COLO 205): > 10 µM (inactive)
- GI50 (DLD-1): > 10 µM (inactive)
- GI50 (DMS-114): > 10 µM (inactive)
- GI50 (DMS-273): > 10 µM (inactive)
- GI50 (EKVX): 7.43 µM (inactive)
- GI50 (HCC 2998): > 10 µM (inactive)
- GI50 (HCT-116): 6.61 µM (inactive)
- GI50 (HCT-15): > 10 µM
- GI50 (HL-60): 2.4 µM (inactive)
- GI50 (HOP-18): > 10 µM (inactive)
- GI50 (HOP-62): > 10 µM (inactive)
- GI50 (HOP-92): 2.23 µM (inactive)
- GI50 (HT-29): 9.75 µM (inactive)
- GI50 (IGROV-1): > 10 µM (inactive)
- GI50 (K562): > 10 µM (inactive)
- GI50 (KM-20L2): > 10 µM (inactive)
- GI50 (KM12): > 10 µM (inactive)
- GI50 (LOX IMVI): > 10 µM (inactive)
- GI50 (LXFL 529): > 10 µM (inactive)
- GI50 (M14): > 10 µM (inactive)
- GI50 (M19-MEL): > 10 µM (inactive)
- GI50 (MOLT-4): 3.18 µM (inactive)
- GI50 (Malme-3M): > 10 µM (inactive)
- GI50 (NCI-H226): > 10 µM (inactive)
- GI50 (NCI-H23): 7.67 µM (inactive)
- GI50 (NCI-H460): 7.67 µM (inactive)
- GI50 (NCI-H522): 6.58 µM (inactive)
- GI50 (OVCAR-3): > 10 µM (inactive)
- GI50 (OVCAR-4): > 10 µM (inactive)
- GI50 (OVCAR-5): > 10 µM (inactive)
- GI50 (OVCAR-8): > 10 µM (inactive)
- GI50 (RPMI-8226): 5.11 µM (inactive)
- GI50 (RXF 631): > 10 µM (inactive)
- GI50 (SF-268): > 10 µM (inactive)
- GI50 (SF-295): > 10 µM (inactive)
- GI50 (SF-539): > 10 µM (inactive)
- GI50 (SK-MEL-28): > 10 µM (inactive)
- GI50 (SK-MEL-2): > 10 µM (inactive)
- GI50 (SK-MEL-5): 6.44 µM (inactive)
- GI50 (SK-OV-3): > 10 µM (inactive)
- GI50 (SN12C): > 10 µM (inactive)
- GI50 (SNB-19): > 10 µM (inactive)
- GI50 (SNB-75): > 10 µM (inactive)
- GI50 (SNB-78): > 10 µM (inactive)
- GI50 (SR): > 10 µM (inactive)
- GI50 (SW-620): 4.8 µM (inactive)
- GI50 (TK-10): > 10 µM (inactive)
- GI50 (U-251): > 10 µM (inactive)
- GI50 (UACC-257): 5.89 µM (inactive)
- GI50 (UACC-62): > 10 µM (inactive)
- GI50 (UO-31): > 10 µM (inactive)
- GI50 (XF498): 7.29 µM (inactive)

Structure (SMILES): COc1cc(/C=C/c2ccc(Br)cc2)cc(OC)c1OC
- GI50 (786-0): 19.9 µM (inactive)
- GI50 (A498): 6.71 µM (inactive)
- GI50 (A549): 11.7 µM (inactive)
- GI50 (ACHN): 18.9 µM (inactive)
- GI50 (CAKI-1): 6.24 µM (inactive)
- GI50 (CCRF-CEM): 11.8 µM (inactive)
- GI50 (COLO 205): 8.83 µM (inactive)
- GI50 (DLD-1): 6.93 µM (inactive)
- GI50 (DMS-114): 10.4 µM (inactive)
- GI50 (DMS-273): 4.91 µM (inactive)
- GI50 (EKVX): 11.2 µM (inactive)
- GI50 (HCC 2998): 7.6 µM (inactive)
- GI50 (HCT-116): 4.55 µM (inactive)
- GI50 (HCT-15): 7 µM
- GI50 (HL-60): 3.74 µM (inactive)
- GI50 (HOP-18): 6.61 µM (inactive)
- GI50 (HOP-62): 13.7 µM (inactive)
- GI50 (HOP-92): 12.1 µM (inactive)
- GI50 (HT-29): 6.44 µM (inactive)
- GI50 (IGROV-1): 23.6 µM (inactive)
- GI50 (K562): 3.71 µM (inactive)
- GI50 (KM-20L2): 7.13 µM (inactive)
- GI50 (KM12): 8.11 µM (inactive)
- GI50 (LOX IMVI): 14.1 µM (inactive)
- GI50 (LXFL 529): 16.1 µM (inactive)
- GI50 (M14): 14.4 µM (inactive)
- GI50 (M19-MEL): 13.9 µM (inactive)
- GI50 (MOLT-4): 3.21 µM (inactive)
- GI50 (Malme-3M): 6.08 µM (inactive)
- GI50 (NCI-H226): 15.9 µM (inactive)
- GI50 (NCI-H23): 16.3 µM (inactive)
- GI50 (NCI-H460): 11.6 µM (inactive)
- GI50 (NCI-H522): 11.8 µM (inactive)
- GI50 (OVCAR-3): 7.8 µM (inactive)
- GI50 (OVCAR-4): 21.3 µM (inactive)
- GI50 (OVCAR-5): 16.6 µM (inactive)
- GI50 (OVCAR-8): 28.3 µM (inactive)
- GI50 (RPMI-8226): 3.99 µM (inactive)
- GI50 (RXF 393): 15.7 µM (inactive)
- GI50 (RXF 631): 9.77 µM (inactive)
- GI50 (SF-268): 9.12 µM (inactive)
- GI50 (SF-295): 6.73 µM (inactive)
- GI50 (SF-539): 11.4 µM (inactive)
- GI50 (SK-MEL-28): 6.21 µM (inactive)
- GI50 (SK-MEL-2): 14.6 µM (inactive)
- GI50 (SK-MEL-5): 5.9 µM (inactive)
- GI50 (SK-OV-3): 20.7 µM (inactive)
- GI50 (SN12C): 18.7 µM (inactive)
- GI50 (SNB-19): 21.1 µM (inactive)
- GI50 (SNB-75): 8.38 µM (inactive)
- GI50 (SR): 16.1 µM (inactive)
- GI50 (SW-620): 7.62 µM (inactive)
- GI50 (TK-10): 21.6 µM (inactive)
- GI50 (U-251): 10.1 µM (inactive)
- GI50 (UACC-257): 13.5 µM (inactive)
- GI50 (UACC-62): 8.02 µM (inactive)
- GI50 (UO-31): 9.77 µM (inactive)
- GI50 (XF498): 20.2 µM (inactive)

Reference: ChEMBL document CHEMBL1201862, “PubChem BioAssay data set” (2004)
